Where a name gives a salt, the structure may show the parent alone.
How the values were obtained:
[1] = biological target: BRD4-BD1 (Homo sapiens (Human), UniProt O60885); test: BRD4 AlphaScreen assay, BRD4-BD1; type: binding; details: biotin-labeled tetra-acetylated histone H4 peptide, 75 min, room temperature, read-out: BRD4 BD-1 enzyme IC50
Method: (§1) BRD4-BD1 and BRD4-BD2 assays were conducted in white 384-well polystyrene plate in a final volume of 20 μL for BD1 and 40 μL for BD2. Inhibitors were first serially diluted in DMSO and added to the plate wells before the addition of other reaction components. The final concentration of DMSO in the assay was 1.25% (BD1) and 0.83% (BD2). The assays were carried out at room temperature for 75 min. in the assay buffer (50 mM HEPES, pH 7.4, 100 mM NaCl, 0.05% CHAPS, 0.01% BSA), containing 50 nM Biotin-labeled tetra-acetylated histone H4 peptide (H4Ac4), 3.8 nM (BRD4-BD1, BPS Bioscience #31040) or 20 nM (BRD4-BD2, BPS Bioscience #31041). The reaction followed by the addition of 20 μL of assay buffer supplemented with Streptavidin donor beads (PerkinElmer 6760002) and GSH Acceptor beads (PerkinElmer-AL109C) at 4 μg/mL under reduced light. After plate sealing, the plate was incubated in the dark at room temperature for 75 min. before reading on a PHERAstar FS plate reader (BMG Labtech). IC50 determination was performed by fitting the curve of percent control activity versus the log of the inhibitor concentration using the GraphPad Prism 5.0 software.

[2] = biological target: BRD4-BD2 (Homo sapiens (Human), UniProt O60885); test: BRD4 AlphaScreen assay, BRD4-BD2; type: binding; details: biotin-labeled tetra-acetylated histone H4 peptide, 75 min, room temperature, read-out: BRD4 BD-2 enzyme IC50
Method: as §1

SMILES	IC50 [1]	IC50 [2]
Cc1cc2c(cc(NC(N)=O)c3nnc(C)n32)n1Cc1cccc(F)c1 [Example 235, 1-(6-(3-Fluorobenzyl)-1,7-dimethyl-6H-pyrrolo[2,3-e][1,2,4]triazolo[4,3-a]pyridin-4-yl)urea]	≤ 100 nM	≤ 100 nM
Cc1cc2c(cc(NC3CCOCC3)c3nnc(C)n32)n1Cc1ccccc1 [Example 146, 6-benzyl-1,7-dimethyl-N-(tetrahydro-2H-pyran-4-yl)-6H-pyrrolo[2,3-e][1,2,4]triazolo[4,3-a]pyridin-4-amine]	≤ 100 nM	≤ 100 nM
Cc1cc2c(ccc3nnc(C)n32)n1Cc1ccc2ccccc2n1 [Example 21, 1,7-dimethyl-6-(quinolin-2-ylmethyl)-6H-pyrrolo[2,3-e][1,2,4]triazolo[4,3-a]pyridine]	100 to 1000 nM	≤ 100 nM
Cc1nnc2ccc3c(cc(C(=O)N[C@H](C)C(F)(F)F)n3Cc3ccccc3)n12 [Example 86, 6-benzyl-1-methyl-N-[(1R)-2,2,2-trifluoro-1-methylethyl]-6H-pyrrolo[2,3-e][1,2,4]triazolo[4,3-a]pyridine-7-carboxamide]	100 to 1000 nM	100 to 1000 nM
Cc1cc2c(cc(NCCN3CCOCC3)c3nnc(C)n32)n1Cc1ccccc1 [Example 208, 6-Benzyl-1,7-dimethyl-N-(2-morpholin-4-ylethyl)-6H-pyrrolo[2,3-e][1,2,4]triazolo[4,3-a]pyridin-4-amine]	≤ 100 nM	≤ 100 nM
Cc1cc2c(cc(NC(=O)OC(C)(C)C)c3nnc(C)n32)n1Cc1ccccc1 [Example 248, tert-Butyl 6-benzy1-1,7-dimethyl-6H-pyrrolo[2,3-e][1,2,4]triazolo[4,3-a]pyridin-4-ylcarbamate]	100 to 1000 nM	≤ 100 nM
Cc1cc2c(cc(NC3CCCCC3)c3nnc(C)n32)n1Cc1ccccc1 [Example 232, 6-Benzyl-N-cyclohexyl-1,7-dimethyl-6H-pyrrolo[2,3-e][1,2,4]triazolo[4,3-a]pyridin-4-amine]	100 to 1000 nM	100 to 1000 nM
CCCNC(=O)c1cc2c(ccc3nnc(C)n32)n1Cc1ccccc1 [Example 83, 6-benzyl-1-methyl-N-propyl-6H-pyrrolo[2,3-e][1,2,4]triazolo[4,3-a]pyridine-7-carboxamide]	≤ 100 nM	≤ 100 nM
CCNC(=O)CCn1ccc(-c2cc3c(ccc4nnc(C)n43)n2Cc2ccccc2)n1 [Example 96, 3-[3-(6-benzyl-1-methyl-6H-pyrrolo[2,3-e][1,2,4]triazolo[4,3-a]pyridin-7-yl)-1H-pyrazol-1-yl]-N-ethylpropanamide]	≤ 100 nM	≤ 100 nM
Cc1cccc(Cn2c(C)cc3c2ccc2nnc(C)n23)c1 [Example 18, 1,7-dimethyl-6-(3-methylbenzyl)-6H-pyrrolo[2,3-e][1,2,4]triazolo[4,3-a]pyridine]	≤ 100 nM	≤ 100 nM
Cc1nnc2ccc3c(cc(-c4ccn(C5(CC#N)CNC5)n4)n3Cc3ccccc3)n12 [Example 90, {3-[3-(6-benzyl-1-methyl-6H-pyrrolo[2,3-e][1,2,4]triazolo[4,3-a]pyridin-7-yl)-1H-pyrazol-1-yl]azetidin-3-yl}acetonitrile]	≤ 100 nM	≤ 100 nM
Cc1nnc2ccc3c(cc(-c4ccn(CCCO)n4)n3Cc3cccc(Cl)c3)n12 [Example 173, 3-{3-[6-(3-Chlorobenzyl)-1-methyl-6H-pyrrolo[2,3-e][1,2,4]triazolo[4,3-a]pyridin-7-yl]-1H-pyrazol-1-yl}propan-1-ol Trifluoroacetate Salt]	≤ 100 nM	≤ 100 nM
CNC(=O)c1cc2c(ccc3nnc(C)n32)n1Cc1cc(Cl)cc(CN2CCC2)c1 [Example 131, 6-[3-(Azetidin-1-ylmethyl)-5-chlorobenzyl]-N,1-dimethyl-6H-pyrrolo[2,3-e][1,2,4]triazolo[4,3-a]pyridine-7-carboxamide bis(trifluoroacetate) Salt]	≤ 100 nM	≤ 100 nM
CC(=O)N1CC(CC#N)(n2ccc(-c3cc4c(ccc5nnc(C)n54)n3Cc3ccccc3)n2)C1 [Example 91, {1-acetyl-3-[3-(6-benzyl-1-methyl-6H-pyrrolo[2,3-e][1,2,4]triazolo[4,3-a]pyridin-7-yl)-1H-pyrazol-1-yl]azetidin-3-yl}acetonitrile]	≤ 100 nM	≤ 100 nM
Cc1cc2c(cc(O)c3nnc(C)n32)n1Cc1ccccc1 [Example 204, 6-Benzyl-1,7-dimethyl-6H-pyrrolo[2,3-e][1,2,4]triazolo[4,3-a]pyridin-4-ol Trifluoroacetate Salt]	≤ 100 nM	≤ 100 nM
Cc1nnc2ccc3c(cc(-c4ncco4)n3Cc3cc(Cl)cc(CN4CCCC4)c3)n12 [Example 197, 6-[3-Chloro-5-(pyrrolidin-1-ylmethyl)benzyl]-1-methyl-7-(1,3-oxazol-2-yl)-6H-pyrrolo[2,3-e][1,2,4]triazolo[4,3-a]pyridine bis(trifluoroacetate) Salt]	≤ 100 nM	≤ 100 nM
Cc1nnc2ccc3c(cc(-c4cn(C)cn4)n3Cc3ccccc3)n12 [Example 70, 6-benzyl-1-methyl-7-(1-methyl-1H-imidazol-4-yl)-6H-pyrrolo[2,3-e][1,2,4]triazolo[4,3-a]pyridine]	≤ 100 nM	≤ 100 nM
Cc1cc2c(cc(Nc3ccccc3)c3nnc(C)n32)n1Cc1ccccc1 [Example 260, 6-Benzyl-1,7-dimethyl-N-phenyl-6H-pyrrolo[2,3-e][1,2,4]triazolo[4,3-a]pyridin-4-amine]	≤ 100 nM	≤ 100 nM
Cc1cc2c(cc(N[C@@H]3CCN(C(=O)OC(C)(C)C)C3)c3nnc(C)n32)n1Cc1ccccc1 [Example 149, tert-butyl (3R)-3-[(6-benzyl-1,7-dimethyl-6H-pyrrolo[2,3-e][1,2,4]triazolo[4,3-a]pyridin-4-yl)amino]pyrrolidine-1-carboxylate]	100 to 1000 nM	≤ 100 nM
Cc1nnc2ccc3c(cc(C(=O)NC(C)C)n3Cc3ccccc3)n12 [Example 84, 6-benzyl-N-isopropyl-1-methyl-6H-pyrrolo[2,3-e][1,2,4]triazolo[4,3-a]pyridine-7-carboxamide]	100 to 1000 nM	100 to 1000 nM
Cc1cc2c(cc(NC3CCNCC3)c3nnc(C)n32)n1Cc1ccccc1 [Example 206, 6-Benzyl-1,7-dimethyl-N-piperidin-4-yl-6H-pyrrolo[2,3-e][1,2,4]triazolo[4,3-a]pyridin-4-amine]	≤ 100 nM	≤ 100 nM
Cc1cc2c(ccc3nnc(C)n32)n1Cc1cccc(F)c1 [Example 15, 6-(3-fluorobenzyl)-1,7-dimethyl-6H-pyrrolo[2,3-e][1,2,4]triazolo[4,3-a]pyridine]	≤ 100 nM	≤ 100 nM
Cc1nnc2ccc3c(cc(-c4ccn(CCC(=O)N(C)C)n4)n3Cc3ccccc3)n12 [Example 95, 3-[3-(6-benzyl-1-methyl-6H-pyrrolo[2,3-e][1,2,4]triazolo[4,3-a]pyridin-7-yl)-1H-pyrazol-1-yl]-N,N-dimethylpropanamide]	≤ 100 nM	≤ 100 nM
Cc1nnc2ccc3c(cc(-c4ccn(C5CN(C(=O)CN(C)C)C5)n4)n3Cc3cccc(Cl)c3)n12 [Example 162, 2-(3-{3-[6-(3-Chlorobenzyl)-1-methyl-6H-pyrrolo[2,3-e][1,2,4]triazolo[4,3-a]pyridin-7-yl]-1H-pyrazol-1-yl}azetidin-1-yl)-N,N-dimethyl-2-oxoethanamine bis(trifluoroacetate) Salt]	≤ 100 nM	≤ 100 nM
Cc1nnc2ccc3c(cc(C(F)(F)F)n3Cc3ccccc3)n12 [Example 138, 6-Benzyl-1-methyl-7-(trifluoromethyl)-6H-pyrrolo[2,3-e][1,2,4]triazolo[4,3-a]pyridine Trifluoroacetate Salt]	100 to 1000 nM	100 to 1000 nM
Cc1cc2c(cc(N[C@H]3CCN(C)[C@H](C)C3)c3nnc(C)n32)n1Cc1ccccc1 (racemic) [Example 225, 6-Benzyl-N-[(2R,4S)-1,2-dimethylpiperidin-4-yl]-1,7-dimethyl-6H-pyrrolo[2,3-e][1,2,4]triazolo[4,3-a]pyridin-4-amine and 6-Benzyl-N-[(2S,4R)-1,2-dimethylpiperidin-4-yl]-1,7-dimethyl-6H-pyrrolo[2,3-e][1,2,4]triazolo[4,3-a]pyridin-4-amine]	≤ 100 nM	≤ 100 nM
CCn1ccc(-c2cc3c(ccc4nnc(C)n43)n2Cc2cc(Cl)cc(CN3CCCC3)c2)n1 [Example 189, 6-(3-Chloro-5-(pyrrolidin-1-ylmethyl)benzyl)-7-(1-ethyl-1H-pyrazol-3-yl)-1-methyl-6H-pyrrolo[2,3-e][1,2,4]triazolo[4,3-a]pyridine tris(trifluoroacetate) Salt]	≤ 100 nM	≤ 100 nM
Cc1cc2c(cc(NC(=O)NC(C)C)c3nnc(C)n32)n1Cc1ccccc1 [Example 250, 1-(6-Benzyl-1,7-dimethyl-6H-pyrrolo[2,3-e][1,2,4]triazolo[4,3-a]pyridin-4-yl)-3-isopropylurea]	≤ 100 nM	≤ 100 nM
Cc1nnc2ccc3c(cc(-c4ccn(CCN(C)C)n4)n3Cc3ccccc3)n12 [Example 89, 2-[3-(6-benzyl-1-methyl-6H-pyrrolo[2,3-e][1,2,4]triazolo[4,3-a]pyridin-7-yl)-1H-pyrazol-1-yl]-N,N-dimethylethanamine]	100 to 1000 nM	≤ 100 nM
